Measurements taken from patent US20140271734A1, “BILE ACID RECYCLING INHIBITORS FOR TREATMENT OF BARRETT'S ESOPHAGUS AND GASTROESOPHAGEAL REFLUX DISEASE” (LUMENA PHARMACEUTICALS, INC., priority 2013, published 2014).
Where two headings read alike, the source gives them in different places.

Columns and labels:
[1] = Pharmacokinetics of LUM001 after oral gavage in rats; type: in vivo; conditions: both sexes, Sprague Dawley, rat, plasma; for bioavailability: read-out: BA (bioavailability); for AUC(0-t): read-out: AUC(0-8 h)
Protocol: Groups of fasted Sprague Dawley rats (n=6/sex/group) were administered LUM001 as a single oral solution dose of either 1, 5 or 30 mg LUM001 free form/kg. The dose of 5 mg LUM001 free form/kg was also administered to rats in a fed state to evaluate the effect of food on plasma concentrations of LUM001 free form. Since LUM001 is a chloride salt, 105% of the amount of LUM001 is required to deliver the stated dose of the free form. The oral dose was delivered to the rat in Tween 80Milli-Q water (0.2% Tween, v/v) and was prepared on the day of dosing.
Blood samples of approximately 1 mL (n=2/sex/timepoint/treatment group) were collected by retro-orbital bleed into chilled tubes containing heparin at timepoints 0 (predose), 0.25, 0.5, 1, 1.5, 2, 3, 5 and 8 hours. The plasma samples were prepared by centrifugation of blood within 30 minutes after sample collection. All samples were stored at −20° C.±5° C. until analysis to study the relative exposures of LUM001 free form after oral solution dosing. The concentration of LUM001 free form in plasma were determined using an LCMSMS method. The assay sensitivity was 2.38 ng/mL.
Means and standard errors of the means (SEM) were calculated for plasma concentrations at each time point. Mean values are significant to three figures and SEM values are significant to the same decimal place as the corresponding mean. Concentration values less than the assay sensitivity (2.38 ng LUM001 free form/mL) were reported as zero. The area under the plasma concentration-time curve (AUC) was calculated from time 0 to 8 hours using a non-compartmental model in WinNonlin (1). The bioavailability (% BA) of LUM001 after oral administration of LUM001 was calculated according to the equation below:
% BA=[AUC oral (0-8)/AUC IV(0-8)/Dose oral/Dose IV]×100.

fecal bile acid (FBA) = assay: Fecal bile acids in hamsters, LUM001 for 28 days; type: in vivo, golden Syrian hamsters; conditions: for Weight-Adjusted Fecal Total Bile Acids Excretion: n=10
Protocol: Male golden Syrian hamsters (126-147 gm) were obtained from Charles Rivers Laboratories and were single housed in a constant temperature environment with alternating 12-hour light and dark cycles. Hamsters were fed Teklad 7001 rodent meal chow at libitum for two weeks before the experimental studies began and switched to Teklad 7001 rodent meal chow supplemented with 0.24% cholesterol on day one of the 28-day experiment. LUM001 was dissolved in an aqueous solution of 0.2% (w/v) Tween 80 and administered Q.D. by intragastric gavage between 9 a.m. and 10 a.m. each morning using a syringe fitted with a flexible feeding tube. Blood samples were collected after 14- and 28-day treatment periods by orbital sinus and cardiac puncture, respectively. Hamsters were anesthetized but not fasted prior to blood collections. Fecal samples were collected during a 48-hour period at the end of days 14 and 28 (i.e., days 13-14 and 27-28, respectively).
Fecal samples were collected to determine the fecal bile acid (FBA) concentration for each animal. The separate collections from each hamster were weighed and homogenized with distilled water with a Polytron tissue processor (Brinkman Instruments) to generate a homogeneous slurry. Fecal homogenate (1.4 grams) was extracted with 2.6 mL of a solution containing tertiary butanol:distilled water in the ratio of 2:0.6 [final concentration of 50% (v/v) tertiary butanol] for 45 minutes in a 37° C. water bath and subjected to centrifugation for 13 minutes at 2000×g. The concentration of bile acids (mmolesgram homogenate) was determined using a 96-well enzymatic assay system (6, 7). Aliquots of the fecal extracts (20 μl) were added to two sets of triplicate wells in a 96-well assay plate. A standardized sodium taurocholate solution and a standardized fecal extract solution (previously made from pooled samples and characterized for its bile acid concentration) were also analyzed for assay quality control. Aliquots of 90 mM sodium taurocholate ([…]), were serially diluted to generate a standard curve containing 30-540 nmoles/well. A […] aliquot of reaction mixture containing 1M hydrazine hydrate, 0.1 M pyrophosphate and 0.46 mg/ml NAD was added to each well. Subsequently, a […] aliquot of either 3a-hydroxysteroid dehydrogenase enzyme (HSD; 0.8 units/ml) or assay buffer (0.1 M sodium pyrophosphate) was then added to one each of the two sets of triplicates. Following 60 minutes of incubation at room temperature, the optical density at 340 nm was measured and the mean of each set of triplicate samples was calculated. The difference in optical density±HSD enzyme was used to determine the bile acid concentration (mM) of each sample based on the sodium taurocholate standard curve. The bile acid concentration of the extract (mmolesgram homogenate), the total weight of the fecal homogenate (grams) and the body weight of the hamsters (g) were used to calculate the corresponding FBA concentration in mmoles/day/kg body weight for each animal. All reagents used for the assay were obtained from Sigma Chemical Co., St. Louis, Mo. (HSD—catalog # H-1506; NAD—catalog # N1636; sodium taurocholate—catalog # T-4009).

[2] = 5 mg/kg, single oral gavage 5 mg/kg free form, fasted
[3] = 5 mg/kg, single oral gavage 5 mg/kg free form, fed
[4] = 30 mg/kg, single oral gavage 30 mg/kg free form, fasted

CCCCC1(CCCC)CS(=O)(=O)c2ccc(N(C)C)cc2[C@@H](c2ccc(OCc3ccc(C[N+]45CCN(CC4)CC5)cc3)cc2)[C@H]1O [LUM001]
bioavailability ([1]; 1 mg/kg, single oral gavage 1 mg/kg free form, fasted): < 0.1%
Cmax [1, 2]: 2.45 ng/mL
Tmax [1, 2]: 60 min
AUC(0-t) [1, 2]: 6.58 ng·h/mL
bioavailability [1, 2]: 0.1%
Cmax [1, 3]: 3.58 ng/mL
Tmax [1, 3]: 15 min
AUC(0-t) [1, 3]: 12.6 ng·h/mL
bioavailability [1, 3]: 0.2%
Cmax [1, 4]: 5.43 ng/mL
Tmax [1, 4]: 30 min
AUC(0-t) [1, 4]: 4.16 ng·h/mL
bioavailability [1, 4]: < 0.1%
Weight-Adjusted Fecal Total Bile Acids Excretion, % change from vehicle group (fecal bile acid (FBA); 5 mg/kg/day): (+233) %
Weight-Adjusted Fecal Total Bile Acids Excretion (fecal bile acid (FBA); 5 mg/kg/day): 60 µmol/day/kg
Weight-Adjusted Fecal Total Bile Acids Excretion, % change from vehicle group (fecal bile acid (FBA); 15 mg/kg/day): (+267) %
Weight-Adjusted Fecal Total Bile Acids Excretion (fecal bile acid (FBA); 15 mg/kg/day): 66 µmol/day/kg
Weight-Adjusted Fecal Total Bile Acids Excretion, % change from vehicle group (fecal bile acid (FBA); 50 mg/kg/day): (+422) %
Weight-Adjusted Fecal Total Bile Acids Excretion (fecal bile acid (FBA); 50 mg/kg/day): 94 µmol/day/kg
